Measurements taken from US20230065158A1, “OXABICYCLOHEPTANES FOR TREATMENT OF SMALL CELL LUNG CANCER” (Lixte Biotechnology, Inc., priority 2021, published 2023).

Experiments:
H446 spheroids = test: H446 spheroid growth, IncuCyte Live-Cell Analysis; assay type: cell-based; details: LB100 20 μM, up to 72 hours
Description: FIGS. 2A-2H depict the effect of LB-100 on H446 spheroid growth. FIG. 2A: Morphology of a single spheroid of H446 cells on days one and nine. Spheroids grow continuously and H&E staining is represented. FIG. 2B: Spheroid's growth in response to LB-100 treatment was recorded with IncuCyte Live-Cell Analysis System. FIG. 2C: Cytotoxicity effect of LB100 was recorded with IncuCyte Live-Cell Analysis System in the presence of LB-100 and IncuCyte Cytotox reagent in green fluorescence. […] Scale bar 100 μm. (FIGS. 2E and 2G). Effect of LB100 and carboplatin alone or in combination was monitored using IncuCyte Live Cell system for 70 h.
We further investigated the effect of LB100 and the chemotherapy drugs on spheroids formed by SCLC cells. Three cell lines H524, H69 and H446 were tested. The H524 and H69 cells formed large soft clumps in low-attachment 96 well plates. […] H446 spheroids treated with or without 20 μM LB100 were imaged in brightfield (BF) and using green fluorescence over 72 hours. The size of the spheroids was measured using an automated software algorithm that masked the largest BF in the field of view (label-free, real-time live cell assay for spheroids: IncuCyte bright-field analysis). […]
H446 cells were plated at a density of 10,000 cells per well and spheroid allowed to form (72-hours). […] Spheroids were imaged every 4 hours for 6 days and analyzed using the IncuCyte ZOOM software.

H524 cells = test: Seahorse XF Real-Time ATP rate assay, H524; assay type: cell-based; details: LB100 2.5 μM, carboplatin 4 μM
Description: FIGS. 6A-6J depict ATP production rate in SCLC cells. FIG. 6A: H524 cells were treated with LB100 (2.5 μM), carboplatin (4 μM), or a combination, and ATP production rate was measured using the Agilent Seahorse XF Real Time ATP rate assay. mitoATP (mitochondrial) and glycoATP (glycolityc) rates were evaluated in H524 cells without and with drug treatments. […] FIG. 6B: Energetic map of H524 cells. After LB-100 and drug combination, cells became less glycolytic. FIGS. 6C-6E: The Agilent Seahorse XF pH sensor probe measures changes in the concentration of free protons, which corresponds to Extracellular Acidification Rate (ECAR). […] ATP level in cells was measured using the Agilent Seahorse XF Real Time ATP rate assay. […]
To elucidate the effect of the drugs on the glycolytic metabolism of H524 cells, we analyzed the proton efflux rate (PER). PER is calculated by subtracting acidification produced from mitochondrial CO2 production (Mitochondrial-derived CO2 can partially hydrate in the extracellular medium, resulting in additional extracellular acidification beyond that contributed by glycolysis) from total acidification or protons efflux (from both glycolysis and mitochondrial) into the extra cellular medium. […] To confirm that LB100 also affected glycolytic pathway in LB100-resistant cells, we measured PER in these cells. […]

In the case of `C[NH+]1CCN(C(=O)C2C(C(=O)O)[C@H]3CC[C@@H]2O3)CC1` (stereo in doubt) [LB-100, 3-[(4-Methylpiperazin-1-yl)carbonyl]-7-oxabicyclo[2.2.1]heptane-2-carboxylic acid], the “spheroid size (bright-field analysis)” value (H446 spheroids) is reported as “spheroid shrinkage” and the “reduction of total ATP production rate compared to untreated cells” value (H524 cells) is reported as 73.7%.

`N.N.O=C([O-])C1(C(=O)[O-])CCC1.[Pt+2]` [Carboplatin, reference compound] was tested, and the “reduction of total ATP production rate compared to untreated cells” value (H524 cells) was 36.3%.
